According to ChEMBL document CHEMBL1137401, “Structure-activity relationship studies on a novel series of (S)-2beta-substituted 3alpha-[bis(4-fluoro- or 4-chlorophenyl)methoxy]tropane analogues for in vivo investigation” (J Med Chem, 2006):
The source made the active and inactive calls. The rule behind the calls is not given here.

What was measured:
Rattus norvegicus [1] = species: Rattus norvegicus; experiment: Drug discriminative activity in Sprague-Dawley rat measured as response on cocaine-appropriate lever; assay type: functional
[2] = target: Norepinephrine transporter (Rattus norvegicus, UniProt Q9WTR4); experiment: Displacement of [3H]nisoxetine from NET in Sprague-Dawley rat brain; assay type: tissue-based
Rattus norvegicus [3] = species: Rattus norvegicus; experiment: Selectivity for Sprague-Dawley rat DAT over rat M1 receptor
[4] = target: T1, Sodium-dependent dopamine transporter (Rattus norvegicus, UniProt P23977); experiment: biochemical; assay type: tissue-based, Sprague-Dawley, Brain
Description: Displacement of [3H]WIN-35428 from DAT in Sprague-Dawley rat brain

[5] = target: T1, Sodium-dependent dopamine transporter; experiment: Inhibition of [3H]dopamine uptake at DAT in Sprague-Dawley rat brain
[6] = target: Sodium-dependent serotonin transporter (Rattus norvegicus, UniProt P31652); experiment: Displacement of [3H]citalopram from SERT in Sprague-Dawley rat brain; assay type: tissue-based
[7] = target: T2, Muscarinic acetylcholine receptor M1 (Rattus norvegicus, UniProt P08482); experiment: Displacement of [3H]pirenzepine from M1 receptor in Sprague-Dawley rat brain
T2 sequence (P08482 whole entry): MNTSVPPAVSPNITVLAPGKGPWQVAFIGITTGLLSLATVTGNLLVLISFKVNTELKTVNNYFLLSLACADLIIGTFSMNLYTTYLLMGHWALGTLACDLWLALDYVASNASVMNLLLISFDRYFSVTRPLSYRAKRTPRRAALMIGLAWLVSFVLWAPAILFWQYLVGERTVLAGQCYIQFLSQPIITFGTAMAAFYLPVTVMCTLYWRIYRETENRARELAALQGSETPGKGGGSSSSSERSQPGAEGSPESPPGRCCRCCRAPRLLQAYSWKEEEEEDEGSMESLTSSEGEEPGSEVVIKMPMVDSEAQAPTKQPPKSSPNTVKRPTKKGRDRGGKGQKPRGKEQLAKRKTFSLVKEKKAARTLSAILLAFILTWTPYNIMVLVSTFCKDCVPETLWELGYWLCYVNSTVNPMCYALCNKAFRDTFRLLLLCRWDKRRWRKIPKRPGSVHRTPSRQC

T1 sequence (P23977 whole entry): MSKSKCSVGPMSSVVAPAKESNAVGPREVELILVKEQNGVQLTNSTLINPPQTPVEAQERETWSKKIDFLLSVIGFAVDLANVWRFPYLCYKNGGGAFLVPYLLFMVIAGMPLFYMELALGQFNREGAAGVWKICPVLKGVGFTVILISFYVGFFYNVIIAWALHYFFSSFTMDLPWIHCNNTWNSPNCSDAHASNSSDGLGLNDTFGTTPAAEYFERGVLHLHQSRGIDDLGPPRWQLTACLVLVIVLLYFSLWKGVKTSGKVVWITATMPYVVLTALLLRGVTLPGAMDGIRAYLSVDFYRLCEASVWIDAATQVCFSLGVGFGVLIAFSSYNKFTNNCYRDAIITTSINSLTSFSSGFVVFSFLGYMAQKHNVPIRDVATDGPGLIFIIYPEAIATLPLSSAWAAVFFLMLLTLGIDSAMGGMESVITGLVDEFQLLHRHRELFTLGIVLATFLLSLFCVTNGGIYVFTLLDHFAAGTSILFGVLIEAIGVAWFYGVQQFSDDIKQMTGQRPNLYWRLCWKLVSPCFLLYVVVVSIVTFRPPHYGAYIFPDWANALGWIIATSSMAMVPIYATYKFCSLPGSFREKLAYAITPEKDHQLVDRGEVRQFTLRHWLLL
Norepinephrine transporter, sequence (Q9WTR4 whole entry): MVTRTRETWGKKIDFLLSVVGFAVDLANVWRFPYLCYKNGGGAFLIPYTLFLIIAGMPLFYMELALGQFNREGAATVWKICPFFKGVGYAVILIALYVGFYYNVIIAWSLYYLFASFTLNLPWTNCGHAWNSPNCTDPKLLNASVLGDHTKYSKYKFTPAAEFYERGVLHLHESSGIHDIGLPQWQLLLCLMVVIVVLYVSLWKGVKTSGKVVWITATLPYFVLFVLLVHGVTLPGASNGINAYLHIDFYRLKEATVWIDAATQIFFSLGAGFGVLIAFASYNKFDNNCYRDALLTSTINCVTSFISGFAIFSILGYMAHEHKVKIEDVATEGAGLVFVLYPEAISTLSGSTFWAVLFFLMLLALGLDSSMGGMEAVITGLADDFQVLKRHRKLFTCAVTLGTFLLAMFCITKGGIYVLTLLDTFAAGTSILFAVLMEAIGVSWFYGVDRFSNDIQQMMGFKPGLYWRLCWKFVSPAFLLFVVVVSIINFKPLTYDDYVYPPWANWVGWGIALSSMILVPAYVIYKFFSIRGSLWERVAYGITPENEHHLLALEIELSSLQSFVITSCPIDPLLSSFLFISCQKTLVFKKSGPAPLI
Sodium-dependent serotonin transporter, sequence (P31652 whole entry): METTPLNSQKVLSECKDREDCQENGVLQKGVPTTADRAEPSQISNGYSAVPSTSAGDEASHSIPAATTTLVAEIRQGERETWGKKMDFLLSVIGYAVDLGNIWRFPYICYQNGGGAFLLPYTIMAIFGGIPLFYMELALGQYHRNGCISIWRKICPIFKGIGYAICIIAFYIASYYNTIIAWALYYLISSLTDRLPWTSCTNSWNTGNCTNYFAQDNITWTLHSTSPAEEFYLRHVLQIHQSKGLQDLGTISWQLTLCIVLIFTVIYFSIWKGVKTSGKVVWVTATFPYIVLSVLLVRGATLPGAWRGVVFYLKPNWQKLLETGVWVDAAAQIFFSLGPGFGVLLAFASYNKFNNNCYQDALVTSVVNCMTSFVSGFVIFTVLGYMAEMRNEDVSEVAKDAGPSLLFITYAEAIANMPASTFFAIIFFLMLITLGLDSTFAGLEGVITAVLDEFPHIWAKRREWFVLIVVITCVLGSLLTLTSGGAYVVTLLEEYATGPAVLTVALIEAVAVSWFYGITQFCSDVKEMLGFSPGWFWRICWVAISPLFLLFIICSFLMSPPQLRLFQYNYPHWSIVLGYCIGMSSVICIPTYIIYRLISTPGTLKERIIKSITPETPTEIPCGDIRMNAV

Compound | Ki [2] [nM] | Ratio Ki (Rattus norvegicus [3]) | other results
CN1C2CCC1CC(OC(c1ccc(F)cc1)c1ccc(F)cc1)C2 (stereo unspecified) [DIFLUOROBENZTROPINE] |  |  | Activity (Rattus norvegicus [1]): 65%
CCCCN1C2CCC1[C@@H](C(=O)OCC)[C@@H](OC(c1ccc(F)cc1)c1ccc(F)cc1)C2 (stereo partly specified) | 580 | 391 | 
CN1C2CCC1[C@@H](COC(=O)CCCc1ccc(N)cc1)[C@@H](OC(c1ccc(F)cc1)c1ccc(F)cc1)C2 (stereo partly specified) | 440 | 12 | 
COC(=O)CC[C@@H]1C2CCC(C[C@@H]1OC(c1ccc(F)cc1)c1ccc(F)cc1)N2C (stereo partly specified) | 454 | 832 | 
CCOC(=O)[C@@H]1C2CCC(C[C@@H]1OC(c1ccc(F)cc1)c1ccc(F)cc1)N2 (stereo partly specified) | 563 | 1930 | 
CN1C2CCC1[C@@H](CO)[C@@H](OC(c1ccc(F)cc1)c1ccc(F)cc1)C2 (stereo partly specified) | 983 | 31 | Ki [4]: 3.4 nM
COC(=O)[C@@H]1C2CCC(C[C@@H]1OC(c1ccc(Cl)cc1)c1ccc(Cl)cc1)N2C (stereo partly specified) | 2150 | 30 | Ki [4]: 12.6 nM; IC50 [5]: 2.46 nM; Ki [6]: 528 nM; Ki [7]: 382 nM
CCOC(=O)[C@@H]1C2CCC(C[C@@H]1OC(c1ccc(F)cc1)c1ccc(F)cc1)N2C (stereo partly specified) |  | 275 | 
COC(=O)[C@@H]1C2CCC(C[C@@H]1OC(c1ccc(F)cc1)c1ccc(F)cc1)N2C (stereo partly specified) |  | 45 | 
COC(=O)/C=C/[C@@H]1C2CCC(C[C@@H]1OC(c1ccc(F)cc1)c1ccc(F)cc1)N2C (stereo partly specified) | 269 | 294 | 
CN1C2CCC1[C@@H](COC(=O)CCCc1ccc([N+](=O)[O-])cc1)[C@@H](OC(c1ccc(F)cc1)c1ccc(F)cc1)C2 (stereo partly specified) | 2130 | 18 | Ki [6]: 3780 nM; Ki [7]: 708 nM
C=C[C@@H]1C2CCC(C[C@@H]1OC(c1ccc(F)cc1)c1ccc(F)cc1)N2C (stereo partly specified) | 473 | 90 | 
COC(=O)C1C(OC(c2ccc(Cl)cc2)c2ccc(Cl)cc2)CC2CCC1N2C (racemic) |  |  | Activity (Rattus norvegicus [1]): inactive
CCOC(=O)[C@@H]1C2CCC(C[C@@H]1OC(c1ccc(Cl)cc1)c1ccc(Cl)cc1)N2C (stereo partly specified) | 3350 |  | Ki [4]: 14.6 nM; IC50 [5]: 1.52 nM; Ki [6]: 1560 nM; Ki [7]: 3060 nM
C=CCN1C2CCC1[C@@H](C(=O)OCC)[C@@H](OC(c1ccc(F)cc1)c1ccc(F)cc1)C2 (stereo partly specified) | 935 | 1040 | 
